Results reported in a melting point compilation (Tetko et al.; mined from patent text by program, amines drawn as free bases though some values may be those of a salt).

With `O=C(O)c1ccccc1NCCNc1ccccc1F` as the molecule, how does the melting point read?
The melting point was 127 to 128 °C.

Which melting point does the source give for `CC(=O)N1CCCC(=O)c2c(Cl)cccc2CCC1=O` here?
The melting point was 115 to 116 °C.

For `N#CCN1C(=O)CC=C(C2(c3ccccc3)C=C3C=CC=CN3N2)N1C1=CCCCC1` (centres undefined), which melting point is on record?
The melting point was 74 to 76 °C.

With `CCOc1c(C)ccc2c1c1cc(Br)ccc1n2C(=O)OC(C)(C)C` as the molecule, how does the melting point read?
The melting point was 137 °C.

For `NOCc1nnc2n1-c1ccc(Cl)cc1C(c1ccccc1)=NC2`, which melting point is on record?
Its melting point is 183 to 186 °C.

Which melting point does the source give for `COc1ccc(Oc2ccc3c(c2)OCC(=O)N3)cc1` here?
Its melting point is 163 to 164 °C.

With `CSCC(C)(C)c1nnc(N)s1` as the molecule, how does the melting point read?
Its melting point is 117 to 120 °C.

Which melting point does the source give for `CCN1CCc2cc(Nc3ncc(Cl)c(Nc4ccccc4C(=O)NC)n3)c(OC)cc2CC1` here?
Its melting point is 195 to 211 °C.

With `COc1cc(OC)nc(NC(=O)NS(=O)(=O)c2cc(N)ccc2C(=O)N(C)C)n1` as the molecule, how does the melting point read?
Its melting point is 192 to 193 °C.

With `COCc1ccc(C(=O)O)c2ccccc12` as the molecule, how does the melting point read?
The melting point was 133 to 134 °C.

With `O=[N+]([O-])c1ccc(-c2nnsc2-c2ccc([N+](=O)[O-])cc2)cc1` as the molecule, how does the melting point read?
The melting point was 185 to 186 °C.

Which melting point does the source give for `CCOC(=O)c1ccc(/C=C(\C)C=O)s1` here?
Its melting point is 98 °C.

With `CC(C)C[C@H](NC(=O)[C@@H](S)Cc1ccccc1)C(=O)O` as the molecule, how does the melting point read?
The melting point was 67 to 71 °C.

For `O=C(NCc1ccc2c(c1)OCO2)c1ccc(C(=O)NCc2ccc3c(c2)OCO3)s1`, which melting point is on record?
The melting point was 207 to 209 °C.

For `COc1ccc(-n2nc(CC(C(=O)N(C)O)c3ccc(Cl)cc3)cc2-c2ccc(Cl)cc2)cc1` (centres undefined), which melting point is on record?
Its melting point is 113 to 117 °C.

Which melting point does the source give for `CN1C(=O)C(NC(=O)Nc2cccc(Br)c2)N=C(c2ccccc2)c2ccccc21` (centres undefined) here?
The melting point was 194 to 196 °C.

For `Cc1sc(C(=O)NCc2ccc3c(c2)OCO3)cc1NC(=O)NCc1ccccc1`, which melting point is on record?
The melting point was 194 to 195 °C.

Which melting point does the source give for `Oc1ccc(Cl)cc1CN1COC(c2ccc(C(F)(F)F)cc2)=N1` here?
The melting point was 144 to 145 °C.

With `FC(F)(F)c1ccc(C2=NNCC2c2ccccc2)cc1` (centres undefined) as the molecule, how does the melting point read?
The melting point was 98 to 112 °C.

Which melting point does the source give for `CC(=O)Oc1ccc(C(=O)O)cc1I` here?
Its melting point is 173 to 174 °C.

With `O=C(O)C=C(c1ccccc1)c1ccc([N+](=O)[O-])cc1` as the molecule, how does the melting point read?
Its melting point is 188 to 189 °C.

With `Nc1cnc(-c2ccc(F)cc2)n(CC(=O)N[C@@H](Cc2ccccc2)C(=O)C(F)(F)C(=O)NCc2ccccc2)c1=O` as the molecule, how does the melting point read?
The melting point was 90 to 91 °C.

Which melting point does the source give for `CN1CC(Cn2cccn2)CC2c3cccc4[nH]cc(c34)CC21` (centres undefined) here?
The melting point was 192 to 194 °C.

With `O=C1c2ccccc2C(=O)C1(c1ccccc1)N1CCC(c2noc3cc(F)ccc23)CC1` as the molecule, how does the melting point read?
The melting point was 149 to 150 °C.

For `Oc1ccc(C2CCC(=CCC3OCCO3)CC2)cc1` (centres undefined), which melting point is on record?
Its melting point is 126 °C.

For `Cc1ccc(CNC(=S)N2CCc3c([nH]c4ccccc34)C2c2ccc3c(c2)OCO3)cc1C` (centres undefined), which melting point is on record?
The melting point was 138 to 142 °C.

With `CCCc1nnc(Cc2ccc(NC(=O)/C=C/c3cnn(C)c3-c3ccc(F)cc3)cc2)o1` as the molecule, how does the melting point read?
The melting point was 154 to 155 °C.

With `O=C(O)c1cn(OCC2CN(Cc3ccccc3)CCN2Cc2ccccc2)c2cc(F)c(F)cc2c1=O` (centres undefined) as the molecule, how does the melting point read?
The melting point was 158 to 159 °C.

With `CCOC(=O)Nc1nc(-c2ccccc2)c(-c2nc3ccccc3c(=O)n2-c2ccccc2Cl)s1` as the molecule, how does the melting point read?
The melting point was 236 to 238 °C.

With `CC(C)Nc1cccnc1N1CCN(C(=O)c2ccc(C(=O)NCC3CCCO3)cn2)CC1` (centres undefined) as the molecule, how does the melting point read?
The melting point was 108 to 110 °C.

Which melting point does the source give for `CC(=O)NC[C@H]1CN(c2ccc(-n3nccc3-c3ccc(F)cc3)c(F)c2)C(=O)O1` here?
Its melting point is 111 to 113 °C.

Which melting point does the source give for `CCCOc1ccc2c(c1)C(c1ccc(OC)cc1-c1cccc(C(=O)O)c1)C(C(=O)O)C2c1ccc2c(c1)OCO2` (centres undefined) here?
Its melting point is 257 to 268 °C.

For `CC(C)(C)c1cc(SCc2cccc(C#N)c2)cc(C(C)(C)C)c1O`, which melting point is on record?
Its melting point is 61 to 63 °C.

For `Cc1cc2nc3ccc(C#N)cn3c(=O)c2s1`, which melting point is on record?
Its melting point is 258 to 259 °C.

For `O=c1oc(-c2ccccc2)cc(O)c1C(CC1CC1)SC1CCCCC1` (centres undefined), which melting point is on record?
Its melting point is 69 to 71 °C.

With `Nc1c(N=O)c(=O)n(C2CC2)c(=O)n1C1CC1` as the molecule, how does the melting point read?
The melting point was 230 °C.

For `Nc1c(CC(=O)O)cccc1Nc1ccccc1Cl`, which melting point is on record?
The melting point was 230 to 232 °C.

Which melting point does the source give for `CN(C(=O)On1ccnn1)c1ccccc1` here?
Its melting point is 105 to 106 °C.

Which melting point does the source give for `Cc1ccc(CC(CC(=O)N2CC3CC=CCC3C2)C(=O)O)cc1` (centres undefined) here?
The melting point was 140 to 141 °C.
